Results taken from the NIST ThermoML archive (doi:10.1016/j.jct.2006.10.008).

What was measured:
[1] = excess molar enthalpy (molar enthalpy of mixing); xn = mol fraction of the nth substance listed; conditions: 298.15 K, 101 kPa, Liquid, Calvet calorimetry
[2] = xn = mol fraction of the nth substance listed; conditions: 298.15 K, 101 kPa, Liquid

CCCOC=O [propyl methanoate] + ClCCCCCl
Conditions | excess molar enthalpy [kcal/mol] | mass density [kg/m3]
[1], x1 = 0.0711 | 0.00681 | –
[1], x1 = 0.1446 | 0.00982 | –
[1], x1 = 0.2182 | 0.0105 | –
[1], x1 = 0.2908 | 0.00652 | –
[1], x1 = 0.3554 | 0.00213 | –
[1], x1 = 0.4191 | -0.00306 | –
[1], x1 = 0.4755 | -0.007 | –
[1], x1 = 0.5267 | -0.0106 | –
[1], x1 = 0.5668 | -0.0133 | –
[1], x1 = 0.6196 | -0.0168 | –
[1], x1 = 0.681 | -0.0186 | –
[1], x1 = 0.7427 | -0.0172 | –
[1], x1 = 0.8085 | -0.0143 | –
[1], x1 = 0.875 | -0.00939 | –
[1], x1 = 0.939 | -0.00533 | –
[2], x1 = 0.0695 | – | 1119.11
[2], x1 = 0.1347 | – | 1106.03
[2], x1 = 0.1987 | – | 1092.92
[2], x1 = 0.2624 | – | 1079.78
[2], x1 = 0.3279 | – | 1066.03
[2], x1 = 0.3884 | – | 1053.07
[2], x1 = 0.4509 | – | 1039.59
[2], x1 = 0.5061 | – | 1027.51
[2], x1 = 0.5671 | – | 1013.93
[2], x1 = 0.6204 | – | 1001.93
[2], x1 = 0.6808 | – | 988.13
[2], x1 = 0.7363 | – | 975.18
[2], x1 = 0.7901 | – | 962.5
[2], x1 = 0.8426 | – | 950.01
[2], x1 = 0.8965 | – | 936.97
[2], x1 = 0.9466 | – | 924.57

ClCCCCCCCl [1,6-dichlorohexane] + CCOC=O
Conditions | excess molar enthalpy [kcal/mol] | mass density [kg/m3]
[1], x2 = 0.102 | 0.0409 | –
[1], x2 = 0.205 | 0.0712 | –
[1], x2 = 0.2968 | 0.09352 | –
[1], x2 = 0.3852 | 0.1054 | –
[1], x2 = 0.4641 | 0.1101 | –
[1], x2 = 0.5316 | 0.1113 | –
[1], x2 = 0.5845 | 0.1095 | –
[1], x2 = 0.6442 | 0.1042 | –
[1], x2 = 0.6907 | 0.09704 | –
[1], x2 = 0.7399 | 0.08726 | –
[1], x2 = 0.7869 | 0.0732 | –
[1], x2 = 0.8348 | 0.0598 | –
[1], x2 = 0.8829 | 0.0418 | –
[1], x2 = 0.9248 | 0.0285 | –
[1], x2 = 0.9656 | 0.0148 | –
[2], x2 = 0.0997 | – | 1055.27
[2], x2 = 0.196 | – | 1046.53
[2], x2 = 0.28 | – | 1038.19
[2], x2 = 0.3577 | – | 1029.9
[2], x2 = 0.4304 | – | 1021.49
[2], x2 = 0.4965 | – | 1013.36
[2], x2 = 0.558 | – | 1005.21
[2], x2 = 0.6159 | – | 997.06
[2], x2 = 0.67 | – | 988.91
[2], x2 = 0.7203 | – | 980.91
[2], x2 = 0.7675 | – | 973
[2], x2 = 0.8114 | – | 965.17
[2], x2 = 0.8538 | – | 957.24
[2], x2 = 0.893 | – | 949.58
[2], x2 = 0.9301 | – | 941.93
[2], x2 = 0.9649 | – | 934.51

CCCCCOC=O [pentyl methanoate] + ClCCCCCCCl
Conditions | excess molar enthalpy [kcal/mol] | mass density [kg/m3]
[1], x1 = 0.0697 | -0.00265 | –
[1], x1 = 0.162 | -0.00595 | –
[1], x1 = 0.2559 | -0.0114 | –
[1], x1 = 0.3406 | -0.0172 | –
[1], x1 = 0.4168 | -0.0225 | –
[1], x1 = 0.4813 | -0.0253 | –
[1], x1 = 0.4927 | -0.0259 | –
[1], x1 = 0.5399 | -0.0275 | –
[1], x1 = 0.5935 | -0.0264 | –
[1], x1 = 0.6653 | -0.0239 | –
[1], x1 = 0.731 | -0.0207 | –
[1], x1 = 0.8005 | -0.0167 | –
[1], x1 = 0.8731 | -0.0112 | –
[1], x1 = 0.9459 | -0.00559 | –
[2], x1 = 0.0731 | – | 1051.9
[2], x1 = 0.1352 | – | 1041.69
[2], x1 = 0.1967 | – | 1031.48
[2], x1 = 0.3212 | – | 1010.41
[2], x1 = 0.3822 | – | 999.88
[2], x1 = 0.4398 | – | 989.79
[2], x1 = 0.558 | – | 968.7
[2], x1 = 0.6153 | – | 958.24
[2], x1 = 0.6723 | – | 947.69
[2], x1 = 0.7282 | – | 937.22
[2], x1 = 0.7836 | – | 926.72
[2], x1 = 0.839 | – | 916.1
[2], x1 = 0.893 | – | 905.58
[2], x1 = 0.9462 | – | 895.13

ClCCCCl [1,3-dichloropropane] + CCCCOC=O
Conditions | excess molar enthalpy [kcal/mol] | mass density [kg/m3]
[1], x2 = 0.0521 | -0.00691 | –
[1], x2 = 0.1142 | -0.0126 | –
[1], x2 = 0.1765 | -0.0207 | –
[1], x2 = 0.2379 | -0.0303 | –
[1], x2 = 0.2982 | -0.0385 | –
[1], x2 = 0.3557 | -0.049 | –
[1], x2 = 0.4108 | -0.0593 | –
[1], x2 = 0.4602 | -0.0664 | –
[1], x2 = 0.5057 | -0.0712 | –
[1], x2 = 0.5508 | -0.0716 | –
[1], x2 = 0.6114 | -0.069 | –
[1], x2 = 0.6872 | -0.0624 | –
[1], x2 = 0.7608 | -0.0527 | –
[1], x2 = 0.8457 | -0.0376 | –
[1], x2 = 0.9261 | -0.0206 | –
[2], x2 = 0.0505 | – | 1161.51
[2], x2 = 0.101 | – | 1144.56
[2], x2 = 0.1523 | – | 1127.68
[2], x2 = 0.2044 | – | 1110.9
[2], x2 = 0.2581 | – | 1094
[2], x2 = 0.313 | – | 1077.09
[2], x2 = 0.3693 | – | 1060.1
[2], x2 = 0.4847 | – | 1026.45
[2], x2 = 0.5445 | – | 1009.59
[2], x2 = 0.6675 | – | 976.01
[2], x2 = 0.7309 | – | 959.34
[2], x2 = 0.7964 | – | 942.5
[2], x2 = 0.862 | – | 925.98
[2], x2 = 0.9296 | – | 909.27
